Test results reported in US20260226048A1, “MULTI-CYCLIC IRAK AND FLT3 INHIBITING COMPOUNDS AND USES THEREOF” (CHILDREN'S HOSPITAL MEDICAL CENTER, priority 2023, published 2026).

How the values were obtained:
[1] = molecular target: T1, FLT3 ITD, F691L (Homo sapiens, UniProt P36888, F691L, form not given); test: DiscoverX KINOMEscan competition binding assay, FLT3 ITD, F691L; conditions: 11-point 3-fold dilution
T1 construct: fused on or other part: DNA tag for qPCR detection (kinase-tagged T7 phage, or made in HEK-293 cells and then tagged with DNA)
T1 sequence (P36888 1-993 F691L): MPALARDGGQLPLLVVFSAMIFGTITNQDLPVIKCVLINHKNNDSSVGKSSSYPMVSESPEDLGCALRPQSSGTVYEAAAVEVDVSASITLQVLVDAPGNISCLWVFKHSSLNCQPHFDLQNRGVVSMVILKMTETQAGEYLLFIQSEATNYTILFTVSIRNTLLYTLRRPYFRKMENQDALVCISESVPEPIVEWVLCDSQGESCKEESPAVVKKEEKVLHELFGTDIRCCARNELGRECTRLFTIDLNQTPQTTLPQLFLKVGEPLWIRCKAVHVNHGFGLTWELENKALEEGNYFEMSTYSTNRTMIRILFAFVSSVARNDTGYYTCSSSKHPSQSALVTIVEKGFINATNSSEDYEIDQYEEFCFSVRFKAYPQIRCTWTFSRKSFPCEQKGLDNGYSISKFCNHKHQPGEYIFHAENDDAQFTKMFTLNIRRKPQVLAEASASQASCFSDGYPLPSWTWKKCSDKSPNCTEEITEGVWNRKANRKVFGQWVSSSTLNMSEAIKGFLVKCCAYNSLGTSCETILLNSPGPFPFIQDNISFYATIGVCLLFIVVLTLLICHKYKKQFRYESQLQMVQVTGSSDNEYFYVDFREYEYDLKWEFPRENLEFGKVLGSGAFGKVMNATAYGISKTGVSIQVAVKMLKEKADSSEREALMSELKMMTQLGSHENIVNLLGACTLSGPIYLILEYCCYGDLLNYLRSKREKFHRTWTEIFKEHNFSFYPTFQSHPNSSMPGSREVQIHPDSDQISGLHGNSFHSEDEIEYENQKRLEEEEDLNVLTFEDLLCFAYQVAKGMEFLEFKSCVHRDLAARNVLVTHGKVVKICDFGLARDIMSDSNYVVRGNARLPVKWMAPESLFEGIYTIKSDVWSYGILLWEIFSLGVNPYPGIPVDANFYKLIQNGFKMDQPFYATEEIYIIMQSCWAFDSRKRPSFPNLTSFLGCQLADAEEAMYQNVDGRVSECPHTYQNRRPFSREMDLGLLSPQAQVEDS
Description: (§1) […]. […] As a result, the data report thermodynamic interaction affinities (Kd values), rather than IC50 values that are dependent on ATP concentrations. The assay uses a DNA-tagged version of the protein kinase, and an immobilized ligand bound to a solid support. Compounds that directly or indirectly prevent kinase binding to the immobilized ligand reduce the amount of kinase captured on the solid support, which is detected using an ultra-sensitive qPCR method. Affinity constants reported from the assay have been reported to be independent of the immobilized ligand used that is coupled to the solid support (See supplemental information in Fabian, M. A. et. al., (2005) Nat. Biotechnol. 23, 329-336; Wodicka, L. M. et. al., (2010) Chem. Biol. 17, 1241-1249.)
(§2) Kinase-tagged T7 phage strains were prepared in an E. coli host derived from the BL21 strain. E. coli were grown to log-phase and infected with T7 phage and incubated with shaking at 32° C. until lysis. The lysates were centrifuged and filtered to remove cell debris. The remaining kinases were produced in HEK-293 cells and subsequently tagged with DNA for qPCR detection. Streptavidin-coated magnetic beads were treated with biotinylated small molecule ligands for 30 minutes at room temperature to generate affinity resins for kinase assays. The liganded beads were blocked with excess biotin and washed with blocking buffer (SeaBlock (Pierce), 1% BSA, 0.05% Tween 20, 1 mM DTT) to remove unbound ligand and to reduce non-specific binding. […] Test compounds were prepared as 111× stocks in 100% DMSO. Kds were determined using an 11-point 3-fold compound dilution series with three DMSO control points. All compounds for Kd measurements are distributed by acoustic transfer (non-contact dispensing) in 100% DMSO. The compounds were then diluted directly into the assays such that the final concentration of DMSO was 0.9%. All reactions were performed in polypropylene 384-well plates. Each was a final volume of 0.02 mL. […] The kinase concentration in the eluates was measured by qPCR.
(§3) Binding constants (Kds) were calculated with a standard dose-response curve using the Hill equation. The Hill Slope was set to −1. Curves were fitted using a non-linear least square fit with the Levenberg-Marquardt algorithm.

[2] = molecular target: T2, FLT3 D835H (Homo sapiens, UniProt P36888, D835H); test: DiscoverX KINOMEscan competition binding assay, FLT3 D835H; conditions: 11-point 3-fold dilution
T2 construct: purchased DiscoverX (KINOMEscan); host or cells: E. coli BL21-derived host (T7 phage) or HEK-293
T2 sequence (P36888 27-993 D835H): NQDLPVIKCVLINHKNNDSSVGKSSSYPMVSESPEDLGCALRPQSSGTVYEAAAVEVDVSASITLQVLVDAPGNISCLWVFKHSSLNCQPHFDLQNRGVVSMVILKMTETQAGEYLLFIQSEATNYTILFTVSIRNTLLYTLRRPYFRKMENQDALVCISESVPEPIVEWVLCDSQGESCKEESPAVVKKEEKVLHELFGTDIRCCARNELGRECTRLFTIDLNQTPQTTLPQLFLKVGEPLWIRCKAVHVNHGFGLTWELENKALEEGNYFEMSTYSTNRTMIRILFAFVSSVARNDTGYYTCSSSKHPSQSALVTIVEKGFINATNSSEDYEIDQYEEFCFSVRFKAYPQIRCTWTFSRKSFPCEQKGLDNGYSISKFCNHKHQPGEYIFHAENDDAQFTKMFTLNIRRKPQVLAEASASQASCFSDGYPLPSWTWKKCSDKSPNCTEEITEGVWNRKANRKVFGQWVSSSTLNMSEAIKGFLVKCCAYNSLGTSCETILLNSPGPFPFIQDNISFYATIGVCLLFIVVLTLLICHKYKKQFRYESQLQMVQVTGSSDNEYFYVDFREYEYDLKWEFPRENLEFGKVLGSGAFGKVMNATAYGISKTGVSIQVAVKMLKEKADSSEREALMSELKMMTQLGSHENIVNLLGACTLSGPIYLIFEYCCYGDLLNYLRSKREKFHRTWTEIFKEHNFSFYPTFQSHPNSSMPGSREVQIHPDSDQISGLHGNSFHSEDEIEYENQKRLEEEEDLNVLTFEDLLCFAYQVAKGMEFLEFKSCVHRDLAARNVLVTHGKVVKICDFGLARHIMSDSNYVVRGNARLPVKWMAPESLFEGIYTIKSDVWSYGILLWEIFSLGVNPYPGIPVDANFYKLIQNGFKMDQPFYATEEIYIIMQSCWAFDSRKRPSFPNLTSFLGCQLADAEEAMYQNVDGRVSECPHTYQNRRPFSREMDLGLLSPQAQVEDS
Description: as §1, §2, §3

Row | SMILES | Kd [1] | Kd [2]
1 | COc1cc2ncc(-c3nc(N[C@H]4CNCC[C@@H]4F)ncc3F)n2nc1C1CC1 [Compound 1a, 4-(6-cyclopropyl-7-methoxyimidazo[1,2-b]pyridazin-3-yl)-5-fluoro-N-((3S,4S)-4-fluoropiperidin-3-yl)pyrimidin-2-amine] | < 0.17 nM | 0.22 nM
2 | FC(F)COc1cc2ncc(-c3ccnc(N[C@H]4CNCC[C@@H]4F)n3)n2nc1C1CC1 [Compound 4a, 4-(6-cyclopropyl-7-(2,2-difluoroethoxy)imidazo[1,2-b]pyridazin-3-yl)-N-((3 S,4S)-4-fluoropiperidin-3-yl)pyrimidin-2-amine] | < 0.17 nM | 0.7 nM
3 | COc1cc2ncc(-c3nc(N[C@H]4CNCC[C@@H]4F)ncc3F)n2nc1C(C)(C)O [Compound 45a, 2-(3-(5-fluoro-2-(((3S,4S)-4-fluoropiperidin-3-yl)amino)pyrimidin-4-yl)-7-methoxyimidazo[1,2-b]pyridazin-6-yl)propan-2-ol] | 0.19 nM | 0.42 nM
4 | CC(C)(O)c1ccc2ncc(-c3nc(N[C@H]4CNCC[C@@H]4F)ncc3F)n2c1 [Compound 46a, 2-(3-(5-fluoro-2-(((3S,4S)-4-fluoropiperidin-3-yl)amino)pyrimidin-4-yl)imidazo[1,2-a]pyridin-6-yl)propan-2-ol] | 0.22 nM | 0.67 nM
5 | COc1cc2ncc(-c3nc(N[C@H]4CNCC[C@@H]4F)ncc3F)n2nc1C1COC1 [Compound 92a, 5-fluoro-N-((3S,4S)-4-fluoropiperidin-3-yl)-4-(7-methoxy-6-(oxetan-3-yl)imidazo[1,2-b]pyridazin-3-yl)pyrimidin-2-amine] | < 0.17 nM | < 0.17 nM
6 | CC(C)(O)c1cn2c(-c3nc(N[C@H]4CNCC[C@@H]4F)ncc3F)cnc2cn1 [Compound 100a, 2-(3-(5-fluoro-2-(((3S,4S)-4-fluoropiperidin-3-yl)amino)pyrimidin-4-yl)imidazo[1,2-a]pyrazin-6-yl)propan-2-ol] | 3.4 nM | 6.3 nM
7 | COc1cc2ncc(-c3nc(N[C@H]4CNCC[C@@H]4F)ncc3F)n2nc1N1CCCS1(=O)=O [Compound 112a, 2-(3-(5-fluoro-2-(((3S,4S)-4-fluoropiperidin-3-yl)amino)pyrimidin-4-yl)-7-methoxyimidazo[1,2-b]pyridazin-6-yl)isothiazolidine 1,1-dioxide] | < 0.17 nM | < 0.17 nM
